Activity calls are given as the source filed them.
Columns and labels:
[1] = biological target: T1, Sentrin-specific protease 7 (Homo sapiens, UniProt Q9BQF6); assay type: functional;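 also: Luminescence-based dose-response confirmation of ultra-high-throughput screening hits, measuring inhibition of SENP7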
T1 sequence (Q9BQF6 whole entry): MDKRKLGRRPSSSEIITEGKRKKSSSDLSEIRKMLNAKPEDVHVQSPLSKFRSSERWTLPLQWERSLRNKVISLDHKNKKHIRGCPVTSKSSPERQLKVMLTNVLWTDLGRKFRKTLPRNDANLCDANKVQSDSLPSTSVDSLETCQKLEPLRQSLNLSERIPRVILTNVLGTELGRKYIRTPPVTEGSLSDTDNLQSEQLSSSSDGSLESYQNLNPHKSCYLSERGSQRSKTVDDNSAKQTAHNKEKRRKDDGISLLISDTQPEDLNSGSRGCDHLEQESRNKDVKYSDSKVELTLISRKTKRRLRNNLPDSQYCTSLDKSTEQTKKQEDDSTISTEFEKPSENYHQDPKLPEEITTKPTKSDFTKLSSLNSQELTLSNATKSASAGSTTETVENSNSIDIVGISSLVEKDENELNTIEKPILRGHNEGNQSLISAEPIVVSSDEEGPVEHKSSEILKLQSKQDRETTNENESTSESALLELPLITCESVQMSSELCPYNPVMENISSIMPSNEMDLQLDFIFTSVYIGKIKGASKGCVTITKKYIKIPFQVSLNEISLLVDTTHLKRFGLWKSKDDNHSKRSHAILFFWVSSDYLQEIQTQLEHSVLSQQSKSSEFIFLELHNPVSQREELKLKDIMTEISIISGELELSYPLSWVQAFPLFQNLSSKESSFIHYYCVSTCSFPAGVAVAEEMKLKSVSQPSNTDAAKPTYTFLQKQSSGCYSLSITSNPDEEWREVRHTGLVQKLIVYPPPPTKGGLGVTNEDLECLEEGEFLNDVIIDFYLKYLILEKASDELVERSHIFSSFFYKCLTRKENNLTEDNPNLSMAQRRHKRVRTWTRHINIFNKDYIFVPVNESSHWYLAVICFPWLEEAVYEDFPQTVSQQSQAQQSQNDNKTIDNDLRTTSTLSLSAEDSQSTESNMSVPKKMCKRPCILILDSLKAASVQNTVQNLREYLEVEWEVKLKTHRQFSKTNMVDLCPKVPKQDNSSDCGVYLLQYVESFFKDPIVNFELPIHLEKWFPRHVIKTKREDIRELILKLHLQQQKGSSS

Streptococcus = test: Group A Streptococcus viability loss, dose response, counter-screen for streptokinase expression inhibitor project, luminescence, BacTiterGlo (AID 1915); assay type: functional, organism-based;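 also: potency for reduction of bacterial viability or growth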
Caspase-3 = biological target: T2, Caspase-3 (Homo sapiens, UniProt P42574); assay type: functional;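 also: Dose-response selectivity test against caspase-3 for candidate inhibitors of sentrin-specific proteases (SENPs)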
T2 sequence (P42574 whole entry): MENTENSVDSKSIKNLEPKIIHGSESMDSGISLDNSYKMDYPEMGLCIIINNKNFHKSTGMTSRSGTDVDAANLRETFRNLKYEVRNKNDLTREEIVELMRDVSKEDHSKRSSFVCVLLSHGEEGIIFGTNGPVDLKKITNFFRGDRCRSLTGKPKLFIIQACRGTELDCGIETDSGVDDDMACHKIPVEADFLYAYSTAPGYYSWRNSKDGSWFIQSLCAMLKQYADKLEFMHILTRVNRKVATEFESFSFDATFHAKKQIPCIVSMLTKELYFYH

[2] = biological target: T3, Sentrin-specific protease 8 (Homo sapiens, UniProt Q96LD8); assay type: functional;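 also: luminescence read-out of SENP8 inhibition, dose-response confirmation following an ultra-high-throughput screen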
T3 sequence (Q96LD8 whole entry): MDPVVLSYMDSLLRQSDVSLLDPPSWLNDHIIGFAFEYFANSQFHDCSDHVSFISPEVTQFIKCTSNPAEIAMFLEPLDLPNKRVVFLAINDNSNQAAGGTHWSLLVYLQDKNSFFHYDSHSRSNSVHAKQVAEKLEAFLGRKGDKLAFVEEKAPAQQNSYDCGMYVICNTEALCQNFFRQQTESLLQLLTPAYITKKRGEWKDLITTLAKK

[3] = test system: Streptococcus sp. 'group A'; test: growth inhibition of control SK(-) GAS strain, dose response, counter-screen for streptokinase expression inhibitor project, luminescence, kanamycin, BacTiterGlo, confirmation (AID 1900); assay type: functional, organism-based
[4] = biological target: T4, Sentrin-specific protease 6 (Homo sapiens, UniProt Q9GZR1); assay type: functional;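 also: Luminescence-based dose-response confirmatory assay of SENP6 inhibition, following up an ultra-high-throughput screen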
T4 sequence (Q9GZR1 whole entry): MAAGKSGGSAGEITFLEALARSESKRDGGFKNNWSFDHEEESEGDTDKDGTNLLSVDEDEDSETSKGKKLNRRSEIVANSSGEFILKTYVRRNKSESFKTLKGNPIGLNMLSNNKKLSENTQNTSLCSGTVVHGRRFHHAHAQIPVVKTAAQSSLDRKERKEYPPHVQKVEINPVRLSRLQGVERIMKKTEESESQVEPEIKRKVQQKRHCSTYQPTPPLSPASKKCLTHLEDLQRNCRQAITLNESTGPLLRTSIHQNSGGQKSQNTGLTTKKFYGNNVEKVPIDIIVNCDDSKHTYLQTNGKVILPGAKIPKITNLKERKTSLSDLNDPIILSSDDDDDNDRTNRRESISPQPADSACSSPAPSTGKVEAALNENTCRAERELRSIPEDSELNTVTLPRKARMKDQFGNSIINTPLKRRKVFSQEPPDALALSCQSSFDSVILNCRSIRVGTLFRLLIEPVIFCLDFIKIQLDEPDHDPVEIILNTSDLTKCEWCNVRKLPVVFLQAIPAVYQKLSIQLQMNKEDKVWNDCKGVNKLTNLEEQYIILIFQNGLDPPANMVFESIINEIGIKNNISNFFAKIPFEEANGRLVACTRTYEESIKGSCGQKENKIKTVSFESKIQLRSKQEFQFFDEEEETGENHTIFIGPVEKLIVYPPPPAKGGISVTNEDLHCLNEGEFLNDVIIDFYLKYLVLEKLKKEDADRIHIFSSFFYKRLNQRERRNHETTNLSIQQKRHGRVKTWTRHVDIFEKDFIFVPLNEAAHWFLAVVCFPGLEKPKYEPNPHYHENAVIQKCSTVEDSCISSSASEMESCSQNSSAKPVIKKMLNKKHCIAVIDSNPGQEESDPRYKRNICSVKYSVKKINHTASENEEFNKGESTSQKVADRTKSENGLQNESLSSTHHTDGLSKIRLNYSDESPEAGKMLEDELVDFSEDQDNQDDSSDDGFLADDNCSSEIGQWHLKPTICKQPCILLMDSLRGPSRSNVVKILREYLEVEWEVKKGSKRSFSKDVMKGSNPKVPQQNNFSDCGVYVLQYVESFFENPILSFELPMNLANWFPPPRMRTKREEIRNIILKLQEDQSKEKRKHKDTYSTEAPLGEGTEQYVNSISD

Streptokinase A = biological target: T5, Streptokinase A (Streptococcus pyogenes serotype M1, UniProt P10520); test: S. pyogenes streptokinase expression inhibitors, potency, dose response, plasminogen activation absorbance, OD405 (AID 1914); assay type: functional, Streptococcus pyogenes M1 GAS;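 also: secreted streptokinase activity via plasminogen activation per viability signal from cell pellet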
T5 sequence (P10520 whole entry): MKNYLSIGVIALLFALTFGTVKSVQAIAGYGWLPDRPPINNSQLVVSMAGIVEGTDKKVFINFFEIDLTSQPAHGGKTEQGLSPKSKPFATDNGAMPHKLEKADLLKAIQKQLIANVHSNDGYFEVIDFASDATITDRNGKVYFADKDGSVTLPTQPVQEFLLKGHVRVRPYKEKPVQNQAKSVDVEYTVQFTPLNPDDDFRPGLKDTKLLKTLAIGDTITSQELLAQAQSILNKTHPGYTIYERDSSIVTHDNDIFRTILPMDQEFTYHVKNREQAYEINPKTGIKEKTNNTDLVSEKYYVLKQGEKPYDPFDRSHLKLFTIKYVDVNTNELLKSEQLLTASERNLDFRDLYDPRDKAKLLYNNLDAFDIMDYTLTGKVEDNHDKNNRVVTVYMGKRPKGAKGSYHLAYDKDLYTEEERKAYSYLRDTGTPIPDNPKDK

[5] = biological target: T6, Ubiquitin-conjugating enzyme E2 N (Homo sapiens, UniProt P61088); assay type: functional
T6 sequence (P61088 whole entry): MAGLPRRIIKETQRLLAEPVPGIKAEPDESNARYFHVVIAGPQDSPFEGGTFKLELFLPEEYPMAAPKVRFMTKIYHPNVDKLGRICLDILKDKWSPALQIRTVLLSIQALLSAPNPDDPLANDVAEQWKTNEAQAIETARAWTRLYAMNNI

[6] = biological target: T6, Ubiquitin-conjugating enzyme E2 N; assay type: functional; remark: listed apart in the source
Bcl-2-related protein A1 = biological target: T7, Bcl-2-related protein A1 (Mus musculus, UniProt Q07440); assay type: functional;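 also: confirmatory dose–response counterscreen on Bfl-1, used to check hits from a UBC13 polyubiquitin inhibitor campaign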
T7 sequence (Q07440 whole entry): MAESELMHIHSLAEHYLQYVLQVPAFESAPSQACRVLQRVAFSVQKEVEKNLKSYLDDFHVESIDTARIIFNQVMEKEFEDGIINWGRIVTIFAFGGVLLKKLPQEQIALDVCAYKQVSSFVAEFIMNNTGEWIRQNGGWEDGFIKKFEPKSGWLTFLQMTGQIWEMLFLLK

Protein skinhead-1 = biological target: T8, Protein skinhead-1 (Caenorhabditis elegans, UniProt P34707); assay type: functional
T8 sequence (P34707 whole entry): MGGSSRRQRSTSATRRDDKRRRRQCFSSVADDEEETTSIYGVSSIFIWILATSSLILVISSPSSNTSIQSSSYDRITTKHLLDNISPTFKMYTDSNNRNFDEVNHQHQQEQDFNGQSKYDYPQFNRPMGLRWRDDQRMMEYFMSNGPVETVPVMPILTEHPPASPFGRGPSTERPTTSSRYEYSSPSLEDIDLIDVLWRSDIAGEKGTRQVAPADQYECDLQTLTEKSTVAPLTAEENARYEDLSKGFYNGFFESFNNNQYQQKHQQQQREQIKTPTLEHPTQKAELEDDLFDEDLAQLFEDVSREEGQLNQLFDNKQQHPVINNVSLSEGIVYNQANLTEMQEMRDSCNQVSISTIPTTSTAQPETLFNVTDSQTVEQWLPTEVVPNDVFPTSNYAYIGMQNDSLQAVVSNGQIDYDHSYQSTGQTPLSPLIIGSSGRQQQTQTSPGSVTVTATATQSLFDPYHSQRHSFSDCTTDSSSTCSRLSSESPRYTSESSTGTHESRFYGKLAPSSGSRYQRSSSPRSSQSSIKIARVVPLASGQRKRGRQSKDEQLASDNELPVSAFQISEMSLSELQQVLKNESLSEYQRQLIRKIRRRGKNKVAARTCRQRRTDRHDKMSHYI

[7] = biological target: T9, Polyadenylate-binding protein 1 (Homo sapiens, UniProt P11940); test: PABP1 MLLE–PAM2 binding inhibitor potency, dose response, biochemical, fluorescence polarization, FITC-PAM2 peptide (AID 602259); assay type: functional; details: read-out: IC50_Mean
[8] = biological target: T9, Polyadenylate-binding protein 1; test: PABP1 MLLE–PAM2 interaction inhibitors, dose response, miRNA deadenylation inhibitor project, biochemical, fluorescence polarization, Cy5-PAM2 peptide, secondary (AID 602260); assay type: functional; details: read-out: IC50_Mean
SUMO-activating enzyme = SUMO-activating enzyme (Homo sapiens, UniProt Q9UBT2); test: SUMOylation inhibitor hit validation, confirmation, SUMOylation inhibitor project, biochemical, AlphaScreen (AID 2018); assay type: functional
[9] = biological target: Peroxisome proliferator-activated receptor gamma/Nuclear receptor coactivator 2 (Homo sapiens, UniProt P37231); test: TR-FRET dose response biochemical High Throughput Screening assay for agonists of the steroid receptor coactivator 2 (SRC-2) recruitment by the peroxisome proliferator-activated receptor gamma (PPAR gamma): non-selective agonists. [Related pubchem assays: 1297, 1032 ]; assay type: functional
[10] = biological target: Peroxisome proliferator-activated receptor gamma/Nuclear receptor coactivator 3 (Homo sapiens, UniProt P37231); test: TR-FRET dose response biochemical High Throughput Screening assay for agonists of the steroid receptor coactivator 3 (SRC-3) recruitment by the peroxisome proliferator-activated receptor gamma (PPAR gamma): non-selective agonists. [Related pubchem assays: 1301 (Confirmation screen.), 1048 (Primary screen.)]; assay type: functional
[11] = biological target: Peroxisome proliferator-activated receptor gamma/Nuclear receptor coactivator 1 (Homo sapiens, UniProt P37231); test: TR-FRET dose response biochemical High Throughput Screening assay for agonists of the steroid receptor coactivator 1 (SRC-1) recruitment by the peroxisome proliferator-activated receptor gamma (PPAR gamma): non-selective agonists. [Related pubchem assays (depositor defined):AID1300, AID1808, AID504735, AID631]; assay type: protein assay

T9 sequence (P11940 whole entry): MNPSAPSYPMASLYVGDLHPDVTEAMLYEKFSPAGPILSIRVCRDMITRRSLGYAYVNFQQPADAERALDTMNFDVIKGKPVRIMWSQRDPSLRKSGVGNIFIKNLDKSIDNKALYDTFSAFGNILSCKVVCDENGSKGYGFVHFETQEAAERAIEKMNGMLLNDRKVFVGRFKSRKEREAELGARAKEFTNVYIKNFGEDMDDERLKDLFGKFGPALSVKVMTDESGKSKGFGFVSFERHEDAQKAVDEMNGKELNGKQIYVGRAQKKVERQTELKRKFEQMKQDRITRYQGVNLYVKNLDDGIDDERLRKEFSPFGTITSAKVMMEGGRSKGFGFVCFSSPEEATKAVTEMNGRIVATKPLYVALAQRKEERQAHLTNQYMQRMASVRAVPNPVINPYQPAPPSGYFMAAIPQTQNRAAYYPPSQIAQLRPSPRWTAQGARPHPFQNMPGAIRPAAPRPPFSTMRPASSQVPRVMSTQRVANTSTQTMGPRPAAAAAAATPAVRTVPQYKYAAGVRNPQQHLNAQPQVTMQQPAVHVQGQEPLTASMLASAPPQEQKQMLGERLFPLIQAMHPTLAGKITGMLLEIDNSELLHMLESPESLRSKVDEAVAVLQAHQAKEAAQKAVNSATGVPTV
Chain of SUMO-activating enzyme (Q9UBE0 whole entry): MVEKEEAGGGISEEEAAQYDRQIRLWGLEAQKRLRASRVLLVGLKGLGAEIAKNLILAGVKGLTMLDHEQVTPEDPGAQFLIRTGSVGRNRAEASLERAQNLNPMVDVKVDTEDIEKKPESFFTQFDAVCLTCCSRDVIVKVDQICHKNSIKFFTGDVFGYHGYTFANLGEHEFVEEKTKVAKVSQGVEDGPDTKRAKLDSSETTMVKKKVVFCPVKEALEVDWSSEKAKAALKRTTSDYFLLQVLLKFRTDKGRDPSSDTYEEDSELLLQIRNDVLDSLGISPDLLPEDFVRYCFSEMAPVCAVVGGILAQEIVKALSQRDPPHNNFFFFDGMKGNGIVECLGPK
Chain of SUMO-activating enzyme (Q9UBT2 whole entry): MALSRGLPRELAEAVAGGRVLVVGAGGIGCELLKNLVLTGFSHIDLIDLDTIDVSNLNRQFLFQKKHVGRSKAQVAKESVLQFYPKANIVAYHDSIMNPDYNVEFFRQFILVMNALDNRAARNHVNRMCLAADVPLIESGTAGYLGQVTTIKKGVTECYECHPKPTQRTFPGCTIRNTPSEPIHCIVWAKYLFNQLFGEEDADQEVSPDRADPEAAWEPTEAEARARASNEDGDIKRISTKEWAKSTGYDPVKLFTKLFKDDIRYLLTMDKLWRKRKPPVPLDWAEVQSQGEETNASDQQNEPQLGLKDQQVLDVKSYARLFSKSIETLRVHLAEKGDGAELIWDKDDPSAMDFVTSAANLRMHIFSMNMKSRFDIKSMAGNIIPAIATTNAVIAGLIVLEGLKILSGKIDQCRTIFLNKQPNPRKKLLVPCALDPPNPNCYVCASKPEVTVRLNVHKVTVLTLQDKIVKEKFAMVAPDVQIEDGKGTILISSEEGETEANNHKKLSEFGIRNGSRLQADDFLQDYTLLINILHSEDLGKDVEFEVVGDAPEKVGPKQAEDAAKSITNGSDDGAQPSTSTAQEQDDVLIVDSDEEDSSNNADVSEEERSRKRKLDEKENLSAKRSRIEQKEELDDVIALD
Chain of Peroxisome proliferator-activated receptor gamma/Nuclear receptor coactivator 3 (P37231 whole entry): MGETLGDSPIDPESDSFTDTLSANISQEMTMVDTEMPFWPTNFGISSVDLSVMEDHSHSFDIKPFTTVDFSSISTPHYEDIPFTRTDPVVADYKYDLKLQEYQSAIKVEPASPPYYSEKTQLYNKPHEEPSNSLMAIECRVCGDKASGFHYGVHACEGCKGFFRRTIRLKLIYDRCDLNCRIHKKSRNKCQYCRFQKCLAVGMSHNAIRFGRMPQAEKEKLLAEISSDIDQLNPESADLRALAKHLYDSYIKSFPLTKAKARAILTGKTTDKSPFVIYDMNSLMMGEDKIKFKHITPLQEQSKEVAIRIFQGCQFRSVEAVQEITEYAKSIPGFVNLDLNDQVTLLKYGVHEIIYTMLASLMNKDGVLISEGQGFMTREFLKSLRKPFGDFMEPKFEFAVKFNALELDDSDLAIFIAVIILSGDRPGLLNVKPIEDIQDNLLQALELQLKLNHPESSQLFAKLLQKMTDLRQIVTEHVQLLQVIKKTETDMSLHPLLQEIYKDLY
Chain of Peroxisome proliferator-activated receptor gamma/Nuclear receptor coactivator 3 (Q9Y6Q9 whole entry, further chain): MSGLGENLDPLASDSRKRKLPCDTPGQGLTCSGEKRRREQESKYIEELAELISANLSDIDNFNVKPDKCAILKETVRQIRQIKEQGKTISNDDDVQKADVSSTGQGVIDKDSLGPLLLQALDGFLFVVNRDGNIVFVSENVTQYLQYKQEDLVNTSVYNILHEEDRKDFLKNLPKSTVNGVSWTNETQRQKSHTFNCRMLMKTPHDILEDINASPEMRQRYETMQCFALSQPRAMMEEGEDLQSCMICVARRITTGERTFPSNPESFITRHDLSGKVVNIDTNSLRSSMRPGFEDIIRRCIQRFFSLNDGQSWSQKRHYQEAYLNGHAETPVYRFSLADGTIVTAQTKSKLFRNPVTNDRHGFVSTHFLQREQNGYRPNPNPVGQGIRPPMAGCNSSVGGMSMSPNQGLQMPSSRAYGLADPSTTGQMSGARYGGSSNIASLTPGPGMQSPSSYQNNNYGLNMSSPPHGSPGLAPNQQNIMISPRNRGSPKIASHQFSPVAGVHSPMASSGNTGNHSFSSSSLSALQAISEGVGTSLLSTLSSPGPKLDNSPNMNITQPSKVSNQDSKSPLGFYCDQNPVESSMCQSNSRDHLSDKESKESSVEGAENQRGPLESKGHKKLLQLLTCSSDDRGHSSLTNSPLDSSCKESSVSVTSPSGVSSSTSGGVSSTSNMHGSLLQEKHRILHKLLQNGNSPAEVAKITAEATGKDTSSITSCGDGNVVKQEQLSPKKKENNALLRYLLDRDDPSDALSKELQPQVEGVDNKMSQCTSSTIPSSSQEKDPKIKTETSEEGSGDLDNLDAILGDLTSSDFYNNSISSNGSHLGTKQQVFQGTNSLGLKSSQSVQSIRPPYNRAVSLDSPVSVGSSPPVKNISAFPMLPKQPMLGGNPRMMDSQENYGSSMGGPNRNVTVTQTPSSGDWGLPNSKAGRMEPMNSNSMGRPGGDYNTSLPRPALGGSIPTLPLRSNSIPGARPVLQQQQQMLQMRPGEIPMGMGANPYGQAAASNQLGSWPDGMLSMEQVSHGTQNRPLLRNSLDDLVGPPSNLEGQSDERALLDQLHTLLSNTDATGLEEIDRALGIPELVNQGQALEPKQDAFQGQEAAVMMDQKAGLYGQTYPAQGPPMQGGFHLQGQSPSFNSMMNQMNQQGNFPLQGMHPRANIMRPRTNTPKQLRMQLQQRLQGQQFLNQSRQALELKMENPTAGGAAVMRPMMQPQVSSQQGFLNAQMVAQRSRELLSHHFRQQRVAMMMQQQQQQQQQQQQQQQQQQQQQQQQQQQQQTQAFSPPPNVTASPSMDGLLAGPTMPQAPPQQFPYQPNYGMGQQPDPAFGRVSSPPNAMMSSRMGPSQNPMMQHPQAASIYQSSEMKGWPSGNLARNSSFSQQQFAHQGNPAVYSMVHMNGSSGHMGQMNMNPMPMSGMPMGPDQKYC

Cc1n[nH]c(Nc2ccc(C(C)C)cc2)c1[N+](=O)[O-]
IC50 [1]: 9.42 µM (active) | EC50 (Streptococcus): > 150 µM (not active) | IC50 (Caspase-3): 36 µM (active) | IC50 [2]: > 100 µM (inactive) | EC50 [3]: 30.9 µM (active) | IC50 [4]: 10.1 µM (active) | EC50 (Streptokinase A): 22.3 µM (active)

COc1ccc(CN(C)C(=O)Cc2ccc(OC)c(S(=O)(=O)N3CCOCC3)c2)cc1OC
IC50 [5]: 12.6 µM (active) | IC50 [6]: 10.8 µM (active) | IC50 (Bcl-2-related protein A1): > 20 µM (inactive)

O=c1c2ccccc2oc2ccc(-c3ccc4[nH]ccc4c3)cc12
IC50 [1]: 6.1 µM (active) | IC50 (Protein skinhead-1): 4.77 µM (active) | IC50 (Caspase-3): 75.1 µM (active) | IC50 [2]: > 100 µM (inactive) | IC50 [4]: 33.7 µM (active)

CCOC(S)=NC(=NS(C)(=O)=O)c1ccccc1
IC50 [7]: > 66 µM (inactive) | IC50 [8]: > 66 µM (inactive)

O=C(O)c1cccc(NC(=O)c2ccc(COc3ccc(Cl)cc3)cc2)c1
IC50 [1]: 21.8 µM (active) | IC50 (Caspase-3): > 100 µM (inactive) | IC50 [2]: 41 µM (active) | IC50 [4]: 16.7 µM (active)

Cc1sc2nc(C(C)Nc3ccccc3N3CCOCC3)[nH]c(=O)c2c1C (stereo not given)
IC50 [5]: 16.5 µM (active) | IC50 [6]: 9.08 µM (active) | IC50 (Bcl-2-related protein A1): > 20 µM (inactive)

CC(=O)Nc1ccc(S(=O)(=O)Nc2nc3ccccc3nc2Nc2ccc3ccccc3c2)cc1
IC50 (SUMO-activating enzyme): > 100 µM (inactive)

C=CCNC(=S)N/N=C(\C)c1cccc(OC)c1
IC50 [7]: > 66 µM (inactive) | IC50 [8]: > 66 µM (inactive)

CCOc1ccc(S(=O)(=O)N(C)c2ccc(OCC(=O)Nc3nc(-c4cc(OC)ccc4OC)cs3)cc2)cc1
EC50 [9]: 34.8 µM (not active) | EC50 [10]: > 79.4 µM (not active) | EC50 [11]: 36.5 µM (inactive)

Reference: ChEMBL document CHEMBL1201862, “PubChem BioAssay data set” (2004)
